# Data published in patent publication US9828379B2 (priority 2013, dated 2017).
# Tests used:
# MAGL [1] = molecular target: T1, MAGL (Mus musculus, UniProt O35678); test: biochemical; conditions: mouse; in vitro competitive ABPP; read-out: Mouse (IC50 value, nM) MAGL
# T1 sequence (O35678 1-303): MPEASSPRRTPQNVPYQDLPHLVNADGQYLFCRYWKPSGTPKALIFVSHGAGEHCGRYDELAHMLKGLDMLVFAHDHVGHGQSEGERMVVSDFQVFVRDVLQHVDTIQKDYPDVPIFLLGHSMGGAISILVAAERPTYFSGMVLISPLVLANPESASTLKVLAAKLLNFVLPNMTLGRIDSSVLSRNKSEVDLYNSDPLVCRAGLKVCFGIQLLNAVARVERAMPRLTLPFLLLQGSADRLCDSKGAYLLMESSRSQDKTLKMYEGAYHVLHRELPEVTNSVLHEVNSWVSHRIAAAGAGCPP
# ABHD6 [2] = molecular target: T2, ABHD6 (Mus musculus, UniProt Q8R2Y0); test: In vitro competitive activity-based protein profiling (Table 2, % inhibition at 1 μM); type: biochemical; conditions: read-out: % Inhibition at 1 μM ABHD6
# T2 sequence (Q8R2Y0 1-336): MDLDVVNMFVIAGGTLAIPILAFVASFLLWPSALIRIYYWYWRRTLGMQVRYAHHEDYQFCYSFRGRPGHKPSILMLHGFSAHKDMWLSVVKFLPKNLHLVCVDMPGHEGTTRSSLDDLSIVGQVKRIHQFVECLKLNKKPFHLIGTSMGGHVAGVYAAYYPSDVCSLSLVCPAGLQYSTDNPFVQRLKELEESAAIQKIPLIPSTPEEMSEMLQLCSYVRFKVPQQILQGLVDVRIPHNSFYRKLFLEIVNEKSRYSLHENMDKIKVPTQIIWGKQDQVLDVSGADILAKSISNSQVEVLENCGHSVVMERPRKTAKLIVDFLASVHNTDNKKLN
# FAAH [3] = molecular target: T3, FAAH (Mus musculus, UniProt O08914); test: as above; type: biochemical; conditions: read-out: % Inhibition at 1 μM FAAH
# T3 sequence (O08914 1-579): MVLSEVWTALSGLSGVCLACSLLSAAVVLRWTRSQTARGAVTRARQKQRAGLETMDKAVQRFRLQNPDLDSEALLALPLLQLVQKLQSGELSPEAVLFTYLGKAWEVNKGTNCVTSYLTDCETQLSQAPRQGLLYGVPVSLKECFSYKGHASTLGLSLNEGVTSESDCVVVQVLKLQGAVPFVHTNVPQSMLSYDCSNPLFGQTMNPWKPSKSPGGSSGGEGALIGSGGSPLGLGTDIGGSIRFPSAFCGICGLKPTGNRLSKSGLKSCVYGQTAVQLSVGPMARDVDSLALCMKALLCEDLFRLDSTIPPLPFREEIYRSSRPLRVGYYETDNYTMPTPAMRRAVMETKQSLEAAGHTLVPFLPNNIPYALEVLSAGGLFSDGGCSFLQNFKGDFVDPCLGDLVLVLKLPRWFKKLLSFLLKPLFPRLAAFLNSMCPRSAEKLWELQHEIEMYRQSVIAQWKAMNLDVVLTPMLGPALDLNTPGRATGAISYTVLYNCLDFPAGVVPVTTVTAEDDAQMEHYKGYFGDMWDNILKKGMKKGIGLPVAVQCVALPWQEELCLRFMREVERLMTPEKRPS
# FAAH [4] = molecular target: T3, FAAH; test: biochemical; conditions: in vitro competitive ABPP
# MAGL [5] = molecular target: T1, MAGL; test: In vitro competitive activity-based protein profiling (Table 2, % inhibition at 1 μM); type: biochemical; conditions: read-out: % Inhibition at 1 μM MAGL
# Procedure: After 30 min, FP—Rh (1.0 μL, 50 μM in DMSO) was added and the mixture was incubated for another 30 min at 37° C. Reactions were quenched with SDS loading buffer (50 μL-4×) and run on SDS-PAGE.
# Cell lysates were diluted with mock proteomes for use in competitive ABPP experiments.
# ABHD6 [6] = molecular target: T2, ABHD6; test: biochemical; conditions: in vitro competitive ABPP
Compound,IC50 (MAGL [1]),inhibition at 1 µM (ABHD6 [2]),inhibition at 1 µM (FAAH [3]),IC50 (FAAH [4]),inhibition at 1 µM (MAGL [5]),IC50 (ABHD6 [6])
"O=C(OC(C(F)(F)F)C(F)(F)F)N1CC2CN(Cc3ccc(N4CCOCC4)cc3C(F)F)CC2C1 (stereo not drawn) [Example 200, 1,1,1,3,3,3-hexafluoropropan-2-yl 5-(2-(difluoromethyl)-4-morpholinobenzyl)hexahydropyrrolo[3,4-c]pyrrole-2(1H)-carboxylate]",100 to 1000 nM,< 25%,25 to 75%,1000 to 10000 nM,> 75%,1000 to 10000 nM
"O=C(OC(C(F)(F)F)C(F)(F)F)N1CC2CN(Cc3ccc(Cl)cc3N3CCC3)CC2C1 (stereo not drawn) [Example 39, 1,1,1,3,3,3-Hexafluoropropan-2-yl 5-[[2-(azetidin-1-yl)-4-chlorophenyl]methyl]-octahydropyrrolo[3,4-c]pyrrole-2-carboxylate]",< 100 nM,< 25%,25 to 75%,100 to 1000 nM,> 75%,1000 to 10000 nM
"Cn1nc(-c2ccccc2)cc1CN1CC2CN(C(=O)OC(C(F)(F)F)C(F)(F)F)CC2C1 (stereo not drawn) [Example 194, 1,1,1,3,3,3-hexafluoropropan-2-yl 5-((1-methyl-3-phenyl-1H-pyrazol-5-yl)methyl)hexahydropyrrolo[3,4-c]pyrrole-2(1H)-carboxylate]",< 100 nM,< 25%,25 to 75%,1000 to 10000 nM,> 75%,1000 to 10000 nM
"O=C(ON1C(=O)CCC1=O)N1CC2CN(Cc3ccc(N4CCOCC4)cc3OC(F)(F)F)CC2C1 (stereo not drawn) [Example 86, 2,5-Dioxopyrrolidin-1-yl 5-[[4-(morpholin-4-yl)-2-(trifluoromethoxy)phenyl]methyl]-octahydropyrrolo[3,4-c]pyrrole-2-carboxylate]",100 to 1000 nM,< 25%,25 to 75%,1000 to 10000 nM,> 75%,1000 to 10000 nM
"CC1COCCN1c1ccc(CN2CC3CN(C(=O)OC(C(F)(F)F)C(F)(F)F)CC3C2)c(Cl)c1 (stereo not drawn) [Example 27, 1,1,1,3,3,3-Hexafluoropropan-2-yl 5-[[2-chloro-4-(3-methylmorpholin-4-yl)phenyl]methyl]-octahydropyrrolo[3,4-c]pyrrole-2-carboxylate]",< 100 nM,< 25%,25 to 75%,1000 to 10000 nM,> 75%,1000 to 10000 nM
"O=C(OC(C(F)(F)F)C(F)(F)F)N1CC2CN(Cc3ccc(N4CCOCC4)cc3OC(F)(F)F)CC2C1 (stereo not drawn) [Example 11, 1,1,1,3,3,3-Hexafluoropropan-2-yl 5-[[4-(morpholin-4-yl)-2-(trifluoromethoxy)phenyl]methyl]-octahydropyrrolo[3,4-c]pyrrole-2-carboxylate]",< 100 nM,< 25%,> 75%,100 to 1000 nM,> 75%,100 to 1000 nM
"O=C(OC(C(F)(F)F)C(F)(F)F)N1CC2CN(Cc3ccccc3-c3ccccc3)CC2C1 (stereo not drawn) [Example 12, 1,1,1,3,3,3-Hexafluoropropan-2-yl 5-[(2-phenylphenyl)methyl]-octahydropyrrolo[3,4-c]pyrrole-2-carboxylate]",< 100 nM,< 25%,25 to 75%,1000 to 10000 nM,> 75%,> 10000 nM
"O=C(OC(C(F)(F)F)C(F)(F)F)N1CC2CN(Cc3cccc(Cl)c3N3C4CCC3COC4)CC2C1 (stereo not drawn) [Example 43, 1,1,1,3,3,3-Hexafluoropropan-2-yl 5-[(3-chloro-2-[3-oxa-8-azabicyclo[3.2.1]octan-8-yl]phenyl)methyl]-octahydropyrrolo[3,4-c]pyrrole-2-carboxylate]",< 100 nM,< 25%,< 25%,1000 to 10000 nM,> 75%,1000 to 10000 nM
"O=C(OC(C(F)(F)F)C(F)(F)F)N1CC2CN(Cc3cc(CN4CCOCC4)cc(OC(F)(F)F)c3)CC2C1 (stereo not drawn) [Example 183, 1,1,1,3,3,3-hexafluoropropan-2-yl 5-(3-(morpholinomethyl)-5-(trifluoromethoxy)benzyl)hexahydropyrrolo[3,4-c]pyrrole-2(1H)-carboxylate]",100 to 1000 nM,< 25%,< 25%,1000 to 10000 nM,> 75%,1000 to 10000 nM
"Cc1c(CN2CC3CN(C(=O)OC(C(F)(F)F)C(F)(F)F)CC3C2)cccc1C(=O)N1CCCCC1 (stereo not drawn) [Example 187, 1,1,1,3,3,3-hexafluoropropan-2-yl 5-(2-methyl-3-(piperidine-1-carbonyl)benzyl)hexahydropyrrolo[3,4-c]pyrrole-2(1H)-carboxylate]",< 100 nM,25 to 75%,< 25%,1000 to 10000 nM,> 75%,1000 to 10000 nM
"CCc1cc(CN2CC3CN(C(=O)OC(C(F)(F)F)C(F)(F)F)CC3C2)n(C2CCOCC2)n1 (stereo not drawn) [Example 156, 1,1,1,3,3,3-hexafluoropropan-2-yl 5-[[3-ethyl-1-(oxan-4-yl)-1H-pyrazol-5-yl]methyl]-octahydropyrrolo[3,4-c]pyrrole-2-carboxylate]",< 100 nM,< 25%,< 25%,1000 to 10000 nM,> 75%,1000 to 10000 nM
"CCN1CCN(c2cccc(CN3CC4CN(C(=O)OC(C(F)(F)F)C(F)(F)F)CC4C3)c2C)CC1 (stereo not drawn) [Example 155, 1,1,1,3,3,3-hexafluoropropan-2-yl 5-[[3-(4-ethylpiperazin-1-yl)-2-methylphenyl]methyl]-octahydropyrrolo[3,4-c]pyrrole-2-carboxylate]",100 to 1000 nM,25 to 75%,25 to 75%,1000 to 10000 nM,> 75%,1000 to 10000 nM
"Cc1c(CN2CC3CN(C(=O)OC(C(F)(F)F)C(F)(F)F)CC3C2)cccc1N1CCN(C)CC1 (stereo not drawn) [Example 154, 1,1,1,3,3,3-hexafluoropropan-2-yl 5-[[2-methyl-3-(4-methylpiperazin-1-yl)phenyl]methyl]-octahydropyrrolo[3,4-c]pyrrole-2-carboxylate]",100 to 1000 nM,< 25%,< 25%,> 10000 nM,> 75%,1000 to 10000 nM
"Cc1c(CN2CC3CN(C(=O)ON4C(=O)CCC4=O)CC3C2)cccc1N1CCC(F)(F)CC1 (stereo not drawn) [Example 144, 2,5-dioxopyrrolidin-1-yl 5-[[3-(4,4-difluoropiperidin-1-yl)-2-methylphenyl]methyl]-octahydropyrrolo[3,4-c]pyrrole-2-carboxylate]",< 100 nM,< 25%,> 75%,100 to 1000 nM,> 75%,1000 to 10000 nM
"O=C(OC(C(F)(F)F)C(F)(F)F)N1CC2CN(Cc3ccc(C(=O)N4CCCC4)c(OC(F)(F)F)c3)CC2C1 (stereo not drawn) [Example 193, 1,1,1,3,3,3-hexafluoropropan-2-yl 5-(4-(pyrrolidine-1-carbonyl)-3-(trifluoromethoxy)benzyl)hexahydropyrrolo[3,4-c]pyrrole-2(1H)-carboxylate]",100 to 1000 nM,25 to 75%,< 25%,> 10000 nM,> 75%,1000 to 10000 nM
